{
  "source": "ChEMBL document CHEMBL1144088",
  "about": "“Potential antipsoriatic agents: lapacho compounds as potent inhibitors of HaCaT cell growth” (J Nat Prod, 1999)",
  "key": {"[1]": {"system": "HaCaT", "test": "Antiproliferative activity against human HaCaT cells", "assay_type": "cell-based"}, "[2]": {"system": "HaCaT", "test": "Cytotoxicity against human HaCaT cells assessed as LDH release at 2 uM", "assay_type": "cell-based"}},
  "data": [
    {"smiles": "C=C(C)C1CC2=C(O1)C(=O)c1ccccc1C2=O", "note": "(stereo not drawn) [DEHYDROISO-ALPHA-LAPACHONE]", "values": [
      {"measurement": "IC50", "setting": "[1]", "value": 4.3, "unit": "µM"}
    ]},
    {"smiles": "O=C1C=C(O)c2cccc(O)c2C1=O", "values": [
      {"measurement": "IC50", "setting": "[1]", "value": "> 10", "unit": "µM"}
    ]},
    {"smiles": "CC1(C)CCC2=C(O1)C(=O)c1ccccc1C2=O", "note": "[ALPHA-LAPACHONE]", "values": [
      {"measurement": "IC50", "setting": "[1]", "value": 10, "unit": "µM"}
    ]},
    {"smiles": "CC1(C)C=CC2=C(O1)C(=O)c1ccccc1C2=O", "note": "[DEHYDRO-ALPHA-LAPACHONE]", "values": [
      {"measurement": "IC50", "setting": "[1]", "value": "> 10", "unit": "µM"}
    ]},
    {"smiles": "CCc1cc2c(o1)-c1cccc(O)c1C(=O)C2=O", "values": [
      {"measurement": "IC50", "setting": "[1]", "value": 0.9, "unit": "µM"},
      {"measurement": "Activity", "setting": "[2]", "value": 235, "unit": "mU"}
    ]},
    {"smiles": "O=C1c2c(O)cccc2Cc2cccc(O)c21", "note": "[ANTHRALIN]", "values": [
      {"measurement": "Activity", "setting": "[2]", "value": 294, "unit": "mU"}
    ]},
    {"smiles": "CC(O)c1cc2c(o1)C(=O)c1ccccc1C2=O", "note": "(configuration not stated)", "values": [
      {"measurement": "IC50", "setting": "[1]", "value": 3.7, "unit": "µM"}
    ]},
    {"smiles": "CCc1cc2c(o1)C(=O)c1c(O)cccc1C2=O", "values": [
      {"measurement": "IC50", "setting": "[1]", "value": 3, "unit": "µM"}
    ]},
    {"smiles": "CC(C)=CCC1=C(O)C(=O)c2ccccc2C1=O", "note": "[LAPACHOL]", "values": [
      {"measurement": "IC50", "setting": "[1]", "value": "> 10", "unit": "µM"}
    ]},
    {"smiles": "CC/C=C/C1=C(O)C(=O)c2c(O)cccc2C1=O", "values": [
      {"measurement": "IC50", "setting": "[1]", "value": "> 10", "unit": "µM"}
    ]},
    {"smiles": "CC(=O)c1cc2c(o1)C(=O)c1c(O)cccc1C2=O", "values": [
      {"measurement": "IC50", "setting": "[1]", "value": 0.3, "unit": "µM"},
      {"measurement": "Activity", "setting": "[2]", "value": 346, "unit": "mU"}
    ]},
    {"smiles": "CC(=O)c1cc2c(o1)C(=O)c1ccccc1C2=O", "note": "[NAPABUCASIN]", "values": [
      {"measurement": "IC50", "setting": "[1]", "value": 0.5, "unit": "µM"},
      {"measurement": "Activity", "setting": "[2]", "value": 331, "unit": "mU"}
    ]},
    {"smiles": "CC1(C)CCC2=C(O1)c1ccccc1C(=O)C2=O", "note": "[LAPACHONE]", "values": [
      {"measurement": "IC50", "setting": "[1]", "value": 0.7, "unit": "µM"},
      {"measurement": "Activity", "setting": "[2]", "value": 329, "unit": "mU"}
    ]}
  ]
}
